Measured values taken from patent US11384063B2, “Modulators of estrogen receptor proteolysis and associated methods of use” (Arvinas Operations, Inc., priority 2017, dated 2022).

Assays:
ERα [1] = molecular target: T1, ERα (Homo sapiens, UniProt P03372); assay: ERE luciferase reporter gene assay in T47D-KBluc cells (target engagement); format: cell-based; set-up: T47D human breast cancer cells stably transfected with estrogen responsive element/promoter/luciferase reporter gene; host or cells: T47D-KBluc cells; settings: 10% FBS, 24 hours, Table 2 VHL centric PROTACs, read-out: IC50
T1 sequence (P03372 1-595): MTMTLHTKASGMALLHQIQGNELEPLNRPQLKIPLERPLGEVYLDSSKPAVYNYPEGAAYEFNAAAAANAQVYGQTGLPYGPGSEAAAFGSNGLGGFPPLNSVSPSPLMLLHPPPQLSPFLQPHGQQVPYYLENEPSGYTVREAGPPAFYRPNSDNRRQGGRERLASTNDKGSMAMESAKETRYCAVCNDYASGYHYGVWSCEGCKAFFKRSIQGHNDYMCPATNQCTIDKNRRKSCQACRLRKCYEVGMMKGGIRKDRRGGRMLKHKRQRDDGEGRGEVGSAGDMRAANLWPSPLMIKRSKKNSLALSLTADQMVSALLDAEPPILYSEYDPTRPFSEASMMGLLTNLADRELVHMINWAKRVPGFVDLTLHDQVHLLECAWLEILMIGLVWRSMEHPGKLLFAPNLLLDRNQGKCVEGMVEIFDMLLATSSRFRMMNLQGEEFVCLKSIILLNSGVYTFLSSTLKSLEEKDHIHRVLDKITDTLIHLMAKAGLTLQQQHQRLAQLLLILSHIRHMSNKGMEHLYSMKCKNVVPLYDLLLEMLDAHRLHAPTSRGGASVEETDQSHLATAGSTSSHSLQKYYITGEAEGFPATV
Method in brief: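 PROTACs were tested at 12 concentrations from 300 nM down to 2 pM in 3-fold steps for 24 h on T47D-KBluc cells with a stable ERE-driven luciferase. Medium was RPMI with 10% FBS, measured at 10 pM estrogen. IC50 came from luminescence after lysis, in duplicate.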

ERα [2] = molecular target: T1, ERα; assay: Estrogen receptor-alpha (ERα) degradation assay in MCF-7 cells using western blot; format: cell-based; set-up: assessed for their activity in degrading ERα in MCF-7 cells via western blot; endogenous in cells; host or cells: MCF7 cells; settings: ER-alpha degradation, MCF7 cells, 3 days of incubation
Procedure: Compounds prepared in this application were also analyzed for the degradation of ERα in MCF7 and T47D cells.
Estrogen Receptor-Alpha (ERα) Degradation Assay in MCF-7 Cells Using Western Blot Method for Table 4.
The exemplary novel ERα degraders were assessed for their activity in degrading ERα in MCF-7 cells via western blot. The assay was carried out in the presence of 10% fetal bovine serum (FBS) or high percentage of human or mouse serum.
MCF7 cells were grown in DMEM/F12 with 10% fetal bovine serum and seeded at 24,000 cells per well in 100 μl into 96-well clear tissue culture plates. The following day, the cells were treated with PROTACs in a […] concentration curve with 100 nM being the top concentration and serial dilutions to make the other concentrations (30 nM, 10 nM, 3 nM, 1 nM, and 0.3 nM). At all concentrations, 0.01% DMSO is the final concentration in the well. The following day, the plates are aspirated, washed with 50 μl of cold PBS. The cells are lysed with 50 μl/well 4° C. Cell Lysis Buffer (Catalog #9803; Cell Signaling Technology, Danvers, Mass.) (20 mM Tris-HCL (pH 7.5), 150 mM NaCl, 1 mM […], 1 mM EGTA, 1% Triton, 2.5 mM sodium pyrophosphate, 1 mM B-glycerophosphate, 1 mM sodium vanadate, 1 ug/ml leupeptin). Lysates were clarified at 16,000×g for 10 minutes, and 2 μg of protein was subjected to SDS-PAGE analysis and followed by immunoblotting according to standard protocols. The antibodies used were ERα (Cell Signaling Technologies Catalog #8644), and Tubulin (Sigma Catalog #T9026; St. Louis, Mo.). Detection reagents were Clarity Western ECL substrate (Bio-Rad Catalog #170-5060; Hercules, Calif.).
Alternatively, MCF7 cells were grown in DMEM/F12 with 10% fetal bovine serum and seeded at 24,000 cells per well in 500 μl in 24-well clear tissue culture plates. The following day, the cells were treated with PROTACs in a 5-point concentration curve (100 nM, 33 nM, 11 nM, 3.7 nM, and 1.2 nM) in the presence of 0.01% DMSO. After 72 hours, the wells are aspirated and washed with 500 μl of PBS. The cells are lysed with 100 μl/well 4° C. Cell Lysis Buffer (Catalog #9803; Cell Signaling Technology, Danvers, M A) (20 mM Tris-HCL (pH 7.5), 150 mM NaCl, 1 mM Na2EDTA, 1 mM EGTA, 1% Triton, 2.5 mM sodium pyrophosphate, 1 mM B-glycerophosphate, 1 mM sodium vanadate, 1 ug/ml leupeptin). Lysates were clarified at 16,000×g for 10 minutes, and 2 μg of protein was subjected to SDS-PAGE analysis and followed by immunoblotting according to standard protocols. The antibodies used were ER(X (Cell Signaling Technologies Catalog #8644), and Tubulin (Sigma Catalog #T9026; St. Louis, Mo.). Detection reagents were Clarity Western ECL substrate (Bio-Rad Catalog #170-5060; Hercules, Calif.).

Cc1ncsc1-c1ccc([C@H](C)NC(=O)[C@@H]2C[C@@H](O)CN2C(=O)[C@@H](NC(=O)COCCOCCOCCOc2ccc(Oc3c(-c4ccc(Br)cc4)sc4cc(O)ccc34)cc2)C(C)(C)C)cc1 [Compound 126, (2S,4R)-1-((S)-14-(4-(2-(4-bromophenyl)-6-hydroxybenzo[b]thiophen-3-yloxy)phenoxy)-2-tert-butyl-4-oxo-6,9,12-trioxa-3-azatetradecane)-4-hydroxy-N-((S)-1-(4-(4-methylthiazol-5-yl)phenyl)ethyl)pyrrolidine-2-carboxamide]
IC50 (ERα [1]): 0.2 nM
DC50 (ERα [2]): < 1 nM
Dmax (ERα [2]): > 75%

Cc1ncoc1-c1ccc([C@H](C)NC(=O)[C@@H]2C[C@@H](O)CN2C(=O)[C@@H](NC(=O)COCCOCCOCCOc2ccc(Oc3c(-c4ccc(Br)cc4)sc4cc(O)ccc34)cc2)C(C)(C)C)cc1 [Compound 127, (2S,4R)-1-((S)-14-(4-(2-(4-bromophenyl)-6-hydroxybenzo[b]thiophen-3-yloxy)phenoxy)-2-tert-butyl-4-oxo-6,9,12-trioxa-3-azatetradecane)-4-hydroxy-N-((S)-1-(4-(4-methyloxazol-5-yl)phenyl)ethyl)pyrrolidine-2-carboxamide]
IC50 (ERα [1]): 0.2 nM
DC50 (ERα [2]): < 1 nM
Dmax (ERα [2]): > 75%

Cc1ncsc1-c1ccc([C@H](C)NC(=O)[C@@H]2C[C@@H](O)CN2C(=O)[C@@H](NC(=O)COCCOCCN(C)CCOc2ccc(Oc3c(-c4ccc(F)cc4)sc4cc(O)ccc34)cc2)C(C)(C)C)cc1 [Compound 128, (2S,4R)-1-[(2S)-2-[1-(4[[2-(4-fluorophenyl)-6-hydroxy-1-benzothiophen-3-yl]oxy]phenyl)-4-methyl-1,7,10-trioxa-4-azadodecan-12-amido]-3,3-dimethylbutanoyl]-4-hydroxy-N-[(1S)-1-[4-(4-methyl-1,3-thiazol-5-yl)phenyl]ethyl]pyrrolidine-2-carboxamide]
IC50 (ERα [1]): 0.3 nM
DC50 (ERα [2]): < 1 nM
Dmax (ERα [2]): > 75%

C[C@H](NC(=O)[C@@H]1C[C@@H](O)CN1C(=O)[C@@H](NC(=O)COCCOCCN(C)CCOc1ccc(Oc2c(-c3ccc(F)cc3)sc3cc(O)ccc23)cc1)C(C)(C)C)c1ccc(Cl)cc1 [Compound 129]
IC50 (ERα [1]): 1.4 nM
DC50 (ERα [2]): 1 to 10 nM
Dmax (ERα [2]): > 75%

Cc1ncsc1-c1ccc(CNC(=O)[C@@H]2C[C@@H](O)CN2C(=O)[C@@H](NC(=O)CCc2cccc(-c3ccn(CCOc4ccc(Oc5c(-c6ccc(F)cc6)sc6cc(O)ccc56)cc4)n3)c2)C(C)(C)C)cc1 [Compound 130, (2S,4R)-1-[(2S)-2-[3-(3-[1-[2-(4-[[2-(4-fluorophenyl)-6-hydroxy-1-benzothiophen-3-yl]oxy]phenoxy)ethyl]-1H-pyrazol-3-yl]phenyl)propanamido]-3,3-dimethylbutanoyl]-4-hydroxy-N-[[4-(4-methyl-1,3-thiazol-5-yl)phenyl]methyl]pyrrolidine-2-carboxamide]
IC50 (ERα [1]): 3.5 nM
DC50 (ERα [2]): 1 to 10 nM
Dmax (ERα [2]): > 75%

Cc1ncsc1-c1ccc(CNC(=O)[C@@H]2C[C@@H](O)CN2C(=O)[C@@H](NC(=O)COCCCCOc2ccc(-c3ccc(Oc4c(-c5ccc(F)cc5)sc5cc(O)ccc45)cc3)nc2)C(C)(C)C)cc1 [Compound 133, (2S,4R)-1-[(2S)-2-[2-(4-[[6-(4-[[2-(4-fluorophenyl)-6-hydroxy-1-benzothiophen-3-yl]oxy]phenyl)pyridin-3-yl]oxy]butoxy)acetamido]-3,3-dimethylbutanoyl]-4-hydroxy-N-[[4-(4-methyl-1,3-thiazol-5-yl)phenyl]methyl]pyrrolidine-2-carboxamide]
IC50 (ERα [1]): 3.7 nM
DC50 (ERα [2]): 1 to 10 nM
Dmax (ERα [2]): > 75%

Cc1ncsc1-c1ccc(CNC(=O)[C@@H]2C[C@@H](O)CN2C(=O)[C@@H](NC(=O)COCCOCCn2ccc(-c3ccc(Oc4c(-c5ccc(F)cc5)sc5cc(O)ccc45)cc3)cc2=O)C(C)(C)C)cc1 [Compound 134]
IC50 (ERα [1]): 2.6 nM
DC50 (ERα [2]): 1 to 10 nM
Dmax (ERα [2]): > 75%

Cc1ncsc1-c1ccc(CNC(=O)[C@@H]2C[C@@H](O)CN2C(=O)[C@@H](NC(=O)COCCOCCN2CCC(c3ccc(Oc4c(-c5ccc(F)cc5)sc5cc(O)ccc45)cc3)CC2)C(C)(C)C)cc1 [Compound 135, (2S,4R)-1-[(2S)-2-[2-(2-[2-[4-(4-[[2-(4-fluorophenyl)-6-hydroxy-1-benzothiophen-3-yl]oxy]phenyl)piperidin-1-yl]ethoxy]ethoxy)acetamido]-3,3-dimethylbutanoyl]-4-hydroxy-N-[[4-(4-methyl-1,3-thiazol-5-yl)phenyl]methyl]pyrrolidine-2-carboxamide]
IC50 (ERα [1]): 0.8 nM
DC50 (ERα [2]): < 1 nM
Dmax (ERα [2]): > 75%

Cc1ncoc1-c1ccc([C@H](C)NC(=O)[C@@H]2C[C@@H](O)CN2C(=O)[C@@H](NC(=O)COCCOCCOCCOc2ccc(Oc3c(-c4ccccc4)sc4cc(O)ccc34)cc2)C(C)(C)C)cc1 [Compound 138, (2S,4R)-1-((S)-2-tert-butyl-14-(4-(6-hydroxy-2-phenylbenzo[b]thiophen-3-yloxy)phenoxy)-4-oxo-6,9,12-trioxa-3-azatetradecane)-4-hydroxy-N-((S)-1-(4-(4-methyloxazol-5-yl)phenyl)ethyl)pyrrolidine-2-carboxamide]
IC50 (ERα [1]): 0.1 nM
DC50 (ERα [2]): < 1 nM
Dmax (ERα [2]): > 75%

Cc1ncsc1-c1ccc(CNC(=O)[C@@H]2C[C@@H](O)CN2C(=O)[C@@H](NC(=O)COc2cccc(CCN(C)CCOc3ccc(Oc4c(-c5ccc(F)cc5)sc5cc(O)ccc45)cc3)c2)C(C)(C)C)cc1 [Compound 139, (2S,4R)-1-[(2S)-2-[2-[3-(2-[[2-(4-[[2-(4-fluorophenyl)-6-hydroxy-1-benzothiophen-3-yl]oxy]phenoxy)ethyl](methyl)amino]ethyl)phenoxy]acetamido]-3,3-dimethylbutanoyl]-4-hydroxy-N-[[4-(4-methyl-1,3-thiazol-5-yl)phenyl]methyl]pyrrolidine-2-carboxamide]
IC50 (ERα [1]): 0.6 nM
DC50 (ERα [2]): < 1 nM
Dmax (ERα [2]): > 75%

Cc1ncsc1-c1ccc(CNC(=O)[C@@H]2C[C@@H](O)CN2C(=O)[C@@H](NC(=O)COCCN2CCN(CCOc3ccc(Oc4c(-c5ccc(Br)cc5)sc5cc(O)ccc45)cc3)CC2)C(C)(C)C)cc1 [Compound 140, (2S,4R)-1-[(2S)-2-[2-(2-[4-[2-(4-[[2-(4-bromophenyl)-6-hydroxy-1-benzothiophen-3-yl]oxy]phenoxy)ethyl]piperazin-1-yl]ethoxy)acetamido]-3,3-dimethylbutanoyl]-4-hydroxy-N-[[4-(4-methyl-1,3-thiazol-5-yl)phenyl]methyl]pyrrolidine-2-carboxamide]
IC50 (ERα [1]): 11 nM
DC50 (ERα [2]): 1 to 10 nM
Dmax (ERα [2]): > 75%
